Patent US8901038B2, “Biphenyl-substituted cyclic ketoenols” (Bayer CropScience AG, priority 2010, dated 2014)

Assays:
Format in all cases: in vivo
[1] = tested on: green peach aphid (Myzus persicae); assay: Myzus test (MYZUPE spray treatment); settings: Chinese cabbage leaf discs sprayed, after 6 days
Protocol: Myzus Test (MYZUPE Spray Treatment)
• Solvents: 78 parts by weight of acetone • 1.5 parts by weight of dimethylformamide • Emulsifier: 0.5 part by weight of alkylaryl polyglycol ether
To produce a suitable preparation of active compound, 1 part by weight of active compound is mixed with the stated amounts of solvent and emulsifier, and the concentrate is diluted with emulsifier-containing water to the desired concentration. Discs of Chinese cabbage (Brassica pekinensis) which are infested by all stages of the green peach aphid (Myzus persicae) are sprayed with an active compound preparation of the desired concentration. After 6 days, the effect in % is determined. 100% means that all aphids have been killed; 0% means that none of the aphids have been killed.

[2] = tested on: larvae of the mustard beetle (Phaedon cochleariae); assay: Phaedon test (PHAECO spray treatment); settings: application rate 500 g/ha; Chinese cabbage leaf discs sprayed; after 7 days
Protocol: Phaedon Test (PHAECO Spray Treatment)
(§1) • Solvents: 78.0 parts by weight of acetone • 1.5 parts by weight of dimethylformamide • Emulsifier: 0.5 part by weight of alkylaryl polyglycol ether
To produce a suitable preparation of active compound, one part by weight of active compound is mixed with the stated amounts of solvents and emulsifier, and the concentrate is diluted with emulsifier-containing water to the desired concentration. […].
After 7 days, the effect in % is determined. 100% means that all beetle larvae have been killed; 0% means that none of the beetle larvae have been killed.

[3] = tested on: greenhouse red spider mite (Tetranychus urticae); assay: Tetranychus test; OP-resistant (TETRUR spray treatment); settings: application rate 100 g/ha; bean leaf discs sprayed; after 6 days
Protocol: Tetranychus Test; OP-Resistant (TETRUR Spray Treatment)
as §1
To produce a suitable preparation of active compound, 1 part by weight of active compound is mixed with the stated amounts of solvent and emulsifier, and the concentrate is diluted with emulsifier-containing water to the desired concentration. Discs of bean leaves (Phaseolus vulgaris), which are infested by all stages of the greenhouse red spider mite (Tetranychus urticae) are sprayed with an active compound preparation of the desired concentration.
After 6 days, the effect in % is determined. 100% means that all spider mites have been killed; 0% means that none of the spider mites have been killed.

[4] = tested on: caterpillars of the armyworm (Spodoptera frugiperda); assay: Spodoptera frugiperda test (SPODFR spray treatment); settings: application rate 500 g/ha; maize leaf discs sprayed; after 7 days
Protocol: Spodoptera frugiperda Test (SPODFR Spray Treatment)
as §1
To produce a suitable preparation of active compound, 1 part by weight of active compound is mixed with the stated amounts of solvent and emulsifier, and the concentrate is diluted with emulsified water to the desired concentration. Discs of maize leaves (Zea mays) are sprayed with an active compound preparation of the desired concentration and, after drying, populated with caterpillars of the armyworm (Spodoptera frugiperda).
After 7 days, the effect in % is determined. 100% means that all caterpillars have been killed; 0% means that none of the caterpillars have been killed.

Lucilia cuprina larvae = assay: Lucilia cuprina test (LUCICU); settings: application rate 100 ppm; treated horse meat; after 2 days
Protocol: Lucilia cuprina test (LUCICU)
(§2) • Solvent: Dimethyl sulphoxide
To produce a suitable preparation of active compound, 10 mg of active compound are mixed with 0.5 ml of dimethyl sulphoxide and the concentrate is diluted with water to the desired concentration. Containers containing horse meat treated with the active compound preparation of the desired concentration are populated with about 20 Lucilia cuprina larvae.
After 2 days, the kill in % is determined. 100% means that all larvae have been killed; 0% means that none of the larvae have been killed.

Boophilus microplus = Boophilus microplus test (BOOPMI injection); settings: application rate 20 μg/animal; injection into the abdomen; after 7 days
Protocol: Boophilus microplus Test (BOOPMI Injection)
as §2
To produce a suitable preparation of active compound, 10 mg of active compound are mixed with 0.5 ml of solvent and the concentrate is diluted with solvent to the desired concentration. The solution of active compound is injected into the abdomen (Boophilus microplus) and the animals are transferred into dishes and stored in a climatized room. The efficacy is monitored for deposition of fertile eggs.
After 7 days, the effect in % is determined. 100% means that none of the ticks has laid any fertile eggs.

Compound | efficacy (aphids killed) ([1]; application rate 500 g/ha) [%] | efficacy (beetle larvae killed) [2] [%] | efficacy (spider mites killed) [3] [%] | efficacy (caterpillars killed) [4] [%] | efficacy (kill of larvae) (Lucilia cuprina larvae) [%] | efficacy (deposition of fertile eggs) (Boophilus microplus) [%] | efficacy (aphids killed) ([1]; application rate 100 g/ha) [%]
CCc1ccc(-c2ccc(Cl)cc2)c(C)c1C1=C(O)C2(CCC(OC)CC2)OC1=O (single isomer, unassigned) [Example I-2-a-5] | 90 | 100 | – | – | – | – | –
CCc1ccc(-c2ccc(Cl)cc2)c(CC)c1C1=C(O)C2(CCOCC2)NC1=O [Example I-1-a-1] | 100 | 100 | 80 | – | – | – | –
CCc1ccc(-c2ccc(Cl)cc2)c(C)c1C1=C(OC(=O)C(C)C)C2(CCC(OC)CC2)NC1=O (centres unmarked) [Example I-1-b-4] | 100 | – | 90 | 100 | – | – | –
CCc1ccc(-c2ccc(F)cc2)c(C)c1C1=C(OC(=O)C(C)C)C2(CCC(OC)CC2)NC1=O (centres unmarked) [Example I-1-b-3] | 90 | – | 100 | – | – | – | –
CCc1ccc(-c2ccc(F)cc2)c(CC)c1C1=C(O)C2(CCOCC2)NC1=O [Example I-1-a-20] | 100 | – | 100 | – | – | – | –
CCc1ccc(-c2ccc(Cl)cc2)c(CC)c1C1=C(O)C2(CCN(OC)CC2)NC1=O [Example I-1-a-24] | – | – | 100 | – | – | – | –
CCON1CCC2(CC1)NC(=O)C(c1c(CC)ccc(-c3ccc(Cl)cc3)c1C)=C2O [Example I-1-a-22] | 100 | 100 | 90 | – | – | – | –
CCc1ccc(-c2ccc(Cl)cc2)c(CC)c1C1=C(O)[C@]2(CC[C@@H](OC)CC2)OC1=O [Example I-2-a-2] | 90 | – | – | – | – | – | –
CCc1ccc(-c2ccc(Cl)cc2)c(C)c1C1=C(O)C2(CCC(OC)CC2)OC1=O (single isomer, unassigned) [Example I-2-a-6] | 100 | 100 | 100 | – | – | – | –
CCc1ccc(-c2ccc(Cl)cc2)c(CC)c1C1=C(OC(=O)C(C)C)C2(CCOCC2)NC1=O [Example I-1-b-1] | – | – | 80 | 83 | – | – | –
Cc1c(-c2ccc(Cl)cc2)ccc(Cl)c1C1=C(O)C2(CCOCC2)NC1=O [Example I-1-a-15] | 100 | – | 90 | 83 | 100 | – | –
CCc1ccc(-c2ccc(F)cc2)c(CC)c1C1=C(O)C2(CCC(OC)CC2)NC1=O (centres unmarked) [Example I-1-a-18] | 100 | – | 100 | – | – | – | –
CCc1c(-c2ccc(Cl)cc2)ccc(C)c1C1=C(O)C2(CCC(OC)CC2)NC1=O (centres unmarked) [Example I-1-a-16] | 100 | – | 90 | 100 | – | – | –
CCc1ccc(-c2ccc(Cl)cc2)c(CC)c1C1=C(O)C2(CCOCC2)OC1=O [Example I-2-a-3] | 90 | – | 100 | – | – | – | –
CCOC(=O)OC1=C(c2c(CC)ccc(-c3ccc(F)cc3)c2C)C(=O)NC12CCC(OC)CC2 (single isomer, unassigned) [Example I-1-c-3] | 100 | – | 90 | – | – | – | –
O=C1NC2(CCOCC2)C(O)=C1c1c(Cl)ccc(-c2ccc(F)cc2)c1Cl [Example I-1-a-6] | 100 | – | 100 | – | – | 90 | –

Compound | efficacy (aphids killed) ([1]; application rate 500 g/ha) [%] | efficacy (beetle larvae killed) [2] [%] | efficacy (spider mites killed) [3] [%] | efficacy (caterpillars killed) [4] [%] | efficacy (kill of larvae) (Lucilia cuprina larvae) [%] | efficacy (deposition of fertile eggs) (Boophilus microplus) [%] | efficacy (aphids killed) ([1]; application rate 100 g/ha) [%]
CCc1cc(C)c(-c2ccc(Cl)cc2)c(C)c1C1=C(O)C2(CCC(OC)CC2)NC1=O (centres unmarked) [Example I-1-a-7] | – | 100 | 90 | – | – | – | 90
CCc1c(-c2ccc(Cl)cc2)ccc(C)c1C1=C(O)C2(CCOCC2)NC1=O [Example I-1-a-17] | 100 | – | 100 | – | – | – | –
CCc1cc(C)c(-c2ccc(Cl)cc2)c(C)c1C1=C(O)C2(CCOCC2)NC1=O [Example I-1-a-8] | 100 | 100 | 90 | – | – | – | –
CCOC(=O)OC1=C(c2c(CC)ccc(-c3ccc(Cl)cc3)c2C)C(=O)NC12CCC(OC)CC2 (centres unmarked) [Example I-1-c-2] | 100 | – | 100 | – | – | – | –
CCc1ccc(-c2ccc(Cl)cc2)c(CC)c1C1=C(O)C2(CCC(OC)CC2)NC1=O (centres unmarked) [Example I-1-a-19] | – | 100 | 90 | – | – | – | –
CCc1ccc(-c2ccc(F)cc2)c(C)c1C1=C(O)C2(CCC(OC)CC2)NC1=O (centres unmarked) [Example I-1-a-4] | 90 | 83 | 100 | – | – | – | –
CCOC(=O)OC1=C(c2c(CC)ccc(-c3ccc(Cl)cc3)c2CC)C(=O)NC12CCOCC2 [Example I-1-c-1] | 90 | – | – | – | – | – | –
CCc1ccc(-c2ccc(Cl)cc2)c(C)c1C1=C(O)C2(CCN(OC)CC2)NC1=O [Example I-1-a-23] | 100 | 100 | 90 | – | – | – | –
CCc1ccc(-c2ccc(Cl)cc2)c(CC)c1C1=C(O)[C@]2(CC[C@H](OC)CC2)OC1=O [Example I-2-a-1] | 90 | 100 | 100 | – | – | – | –
CCc1ccc(-c2ccc(Cl)cc2)c(C)c1C1=C(O)C2(CCOCC2)NC1=O [Example I-1-a-3] | 100 | 100 | 90 | 80 | – | 80 | –
CCc1c(-c2ccc(F)cc2)ccc(C)c1C1=C(O)C2(CCC(OC)CC2)NC1=O (centres unmarked) [Example I-1-a-9] | 90 | 83 | 70 | – | – | 100 | –
CCc1c(-c2ccc(F)cc2)ccc(C)c1C1=C(OC(=O)C(C)C)C2(CCC(OC)CC2)NC1=O (centres unmarked) [Example I-1-b-2] | 90 | – | – | – | – | – | –
CCc1ccc(-c2ccc(Cl)cc2)c(C)c1C1=C(O)C2(CCOCC2)OC1=O [Example I-2-a-7] | 100 | – | 100 | 100 | – | – | –
CCc1ccc(-c2ccc(F)cc2)c(C)c1C1=C(O)C2(CCOCC2)NC1=O [Example I-1-a-5] | 100 | – | 90 | – | – | – | –
CCc1ccc(-c2ccc(Cl)cc2)c(C)c1C1=C(O)C2(CCC(OC)CC2)NC1=O (centres unmarked) [Example I-1-a-21] | 100 | – | 100 | – | – | – | –
